# Results reported in paper PMC3048920 (Clinical cancer research : an official journal of the …, 2011).
# Experiments:
# [1] = test system: patients with advanced solid malignancies; assay: Treatment-related adverse events and laboratory abnormalities; format: in vivo
# [2] = human, in vivo
# [3] = Schedule A (n = 111), treatment-related, all cycles
# [4] = Schedule B (n = 10), treatment-related, all cycles
smiles,measurement,setting,value
COc1cc2ncnc(Nc3ccc(F)c(Cl)c3)c2cc1NC(=O)/C=C/CN1CCCCC1 [PF299804],"Vomiting, Grade 1, n (%)",[1]; [3],14 (12.6) n (%)
same,"Vomiting, Grade 2, n (%)",[1]; [3],3 (2.7) n (%)
same,"Vomiting, Grade 3, n (%)",[1]; [3],1 (0.9) n (%)
same,"Vomiting, Total, n (%)",[1]; [3],18 (16.2) n (%)
same,"Alopecia, Grade 1, n (%)",[1]; [4],2 (20.0) n (%)
same,"Alopecia, Grade 2, n (%)",[1]; [4],0 n (%)
same,"Alopecia, Grade 3, n (%)",[1]; [4],0 n (%)
same,"Alopecia, Total, n (%)",[1]; [4],2 (20.0) n (%)
same,"Anorexia, Grade 1, n (%)",[1]; [4],0 n (%)
same,"Anorexia, Grade 2, n (%)",[1]; [4],3 (30.0) n (%)
same,"Anorexia, Grade 3, n (%)",[1]; [4],0 n (%)
same,"Anorexia, Total, n (%)",[1]; [4],3 (30.0) n (%)
same,"Dermatitis acneiform, Grade 1, n (%)",[1]; [4],0 n (%)
same,"Dermatitis acneiform, Grade 2, n (%)",[1]; [4],3 (30.0) n (%)
same,"Dermatitis acneiform, Grade 3, n (%)",[1]; [4],0 n (%)
same,"Dermatitis acneiform, Total, n (%)",[1]; [4],3 (30.0) n (%)
same,"Diarrhea, Grade 1, n (%)",[1]; [4],2 (20.0) n (%)
same,"Diarrhea, Grade 2, n (%)",[1]; [4],5 (50.0) n (%)
same,"Diarrhea, Grade 3, n (%)",[1]; [4],2 (20.0) n (%)
same,"Diarrhea, Total, n (%)",[1]; [4],9 (90.0) n (%)
same,"Dry eye, Grade 1, n (%)",[1]; [4],1 (10.0) n (%)
same,"Dry eye, Grade 2, n (%)",[1]; [4],2 (20.0) n (%)
same,"Dry eye, Grade 3, n (%)",[1]; [4],0 n (%)
same,"Dry eye, Total, n (%)",[1]; [4],3 (30.0) n (%)
same,"Dry skin, Grade 1, n (%)",[1]; [4],1 (10.0) n (%)
same,"Dry skin, Grade 2, n (%)",[1]; [4],2 (20.0) n (%)
same,"Dry skin, Grade 3, n (%)",[1]; [4],0 n (%)
same,"Dry skin, Total, n (%)",[1]; [4],3 (30.0) n (%)
same,"Eye pain, Grade 1, n (%)",[1]; [4],2 (20.0) n (%)
same,"Eye pain, Grade 2, n (%)",[1]; [4],0 n (%)
same,"Eye pain, Grade 3, n (%)",[1]; [4],0 n (%)
same,"Eye pain, Total, n (%)",[1]; [4],2 (20.0) n (%)
same,"Fatigue, Grade 1, n (%)",[1]; [4],0 n (%)
same,"Fatigue, Grade 2, n (%)",[1]; [4],3 (30.0) n (%)
same,"Fatigue, Grade 3, n (%)",[1]; [4],1 (10.0) n (%)
same,"Fatigue, Total, n (%)",[1]; [4],4 (40.0) n (%)
same,"Nausea, Grade 1, n (%)",[1]; [4],1 (10.0) n (%)
same,"Nausea, Grade 2, n (%)",[1]; [4],2 (20.0) n (%)
same,"Nausea, Grade 3, n (%)",[1]; [4],1 (10.0) n (%)
same,"Nausea, Total, n (%)",[1]; [4],4 (40.0) n (%)
same,"Pruritus, Grade 1, n (%)",[1]; [4],2 (20.0) n (%)
same,"Pruritus, Grade 2, n (%)",[1]; [4],0 n (%)
same,"Pruritus, Grade 3, n (%)",[1]; [4],0 n (%)
same,"Pruritus, Total, n (%)",[1]; [4],2 (20.0) n (%)
same,"Rash, Grade 1, n (%)",[1]; [4],4 (40.0) n (%)
same,"Rash, Grade 2, n (%)",[1]; [4],2 (20.0) n (%)
same,"Rash, Grade 3, n (%)",[1]; [4],0 n (%)
same,"Rash, Total, n (%)",[1]; [4],6 (60.0) n (%)
same,"Skin exfoliation, Grade 1, n (%)",[1]; [4],1 (10.0) n (%)
same,"Skin exfoliation, Grade 2, n (%)",[1]; [4],0 n (%)
same,"Skin exfoliation, Grade 3, n (%)",[1]; [4],1 (10.0) n (%)
same,"Skin exfoliation, Total, n (%)",[1]; [4],2 (20.0) n (%)
same,"Skin fissures, Grade 1, n (%)",[1]; [4],2 (20.0) n (%)
same,"Skin fissures, Grade 2, n (%)",[1]; [4],1 (10.0) n (%)
same,"Skin fissures, Grade 3, n (%)",[1]; [4],0 n (%)
same,"Skin fissures, Total, n (%)",[1]; [4],3 (30.0) n (%)
same,"Stomatitis, Grade 1, n (%)",[1]; [4],1 (10.0) n (%)
same,"Stomatitis, Grade 2, n (%)",[1]; [4],1 (10.0) n (%)
same,"Stomatitis, Grade 3, n (%)",[1]; [4],1 (10.0) n (%)
same,"Stomatitis, Total, n (%)",[1]; [4],3 (30.0) n (%)
same,"Vomiting, Grade 1, n (%)",[1]; [4],2 (20.0) n (%)
same,"Vomiting, Grade 2, n (%)",[1]; [4],1 (10.0) n (%)
same,"Vomiting, Grade 3, n (%)",[1]; [4],0 n (%)
same,"Vomiting, Total, n (%)",[1]; [4],3 (30.0) n (%)
same,total AEs,[1]; all 121 patients,"1,416 AEs"
same,AEs considered to be related to study drug,[1]; all schedules,709 AEs
same,patients experiencing AEs related to study drug,"[1]; all schedules, of 121",111 patients
same,AEs considered to be related to study drug,[1]; schedule A,626 AEs
same,patients experiencing AEs related to study drug,[1]; schedule A,102 patients
same,patients with dose interruptions as a result of treatment-related AEs,[1]; schedule A,29
same,AEs considered to be related to study drug,[1]; schedule B,83 AEs
same,patients with dose interruptions as a result of treatment-related AEs,[1]; schedule B,3
same,terminal half-life (t1/2),[2],59 to 85 h
